Experimental data taken from patent US20100041662A1, “Heterocyclic compounds as antiinflammatory agents” (priority 2006, published 2010).

T1: human ALK5 (ALK5 T204D kinase domain) (Homo sapiens, UniProt P36897, T204D)
T1 construct: The kinase domain of human ALK5 (amino acids 200-503) is fused to an N-terminal histidine tag; made in house; host or cells: insect cells (baculovirus)
T1 sequence (P36897 200-503 T204D): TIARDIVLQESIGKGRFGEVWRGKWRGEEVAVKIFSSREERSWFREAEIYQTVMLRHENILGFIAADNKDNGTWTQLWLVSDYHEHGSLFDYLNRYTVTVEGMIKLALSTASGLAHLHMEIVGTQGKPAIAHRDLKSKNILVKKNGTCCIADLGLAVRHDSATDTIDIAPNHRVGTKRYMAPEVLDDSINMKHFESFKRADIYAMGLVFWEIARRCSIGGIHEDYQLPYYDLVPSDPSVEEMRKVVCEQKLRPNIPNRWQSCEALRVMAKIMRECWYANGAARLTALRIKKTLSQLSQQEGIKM

B1: follistatin: an antagonist of activin signalling (protein, UniProt P19883 30-344, looked up)
Follistatin: GNCWLRQAKNGRCQVLYKTELSKEECCSTGRLSTSWTEEDVNDNTLFKWMIFNGGAPNCIPCKETCENVDCGPGKKCRMNKKNKPRCVCAPDCSNITWKGPVCGLDGKTYRNECALLKARCKEQPELEVQYQGRCKKTCRDVFCPGSSTCVVDQTNNAYCVTCNRICPEPASSEQYLCGNDGVTYSSACHLRKATCLLGRSIGLAYEGKCIKAKSCEDIQCTGGKKCLWDFKVGRGRCSLCDELCPDSKSDEPVCASDNATYASECAMKEAACSSGVLLEVKHSGSCNSISEDTEEEEEDEDQDYSFPISSILEW

How the values were obtained:
[1] = target: T2, JAK2 (GST-JAK2(808-1132)) (Homo sapiens, UniProt O60674); assay: JAK/TYK-kinase family profiling, Caliper mobility shift assay; format: biochemical; details: 20 μM ATP, JAK3tide substrate
T2 construct: GST-JAK2(808-1132) was purchased from Invitrogen (Carlsbad, USA, #4288); purchased Invitrogen (Carlsbad, USA) #4288
T2 sequence (O60674 808-1132): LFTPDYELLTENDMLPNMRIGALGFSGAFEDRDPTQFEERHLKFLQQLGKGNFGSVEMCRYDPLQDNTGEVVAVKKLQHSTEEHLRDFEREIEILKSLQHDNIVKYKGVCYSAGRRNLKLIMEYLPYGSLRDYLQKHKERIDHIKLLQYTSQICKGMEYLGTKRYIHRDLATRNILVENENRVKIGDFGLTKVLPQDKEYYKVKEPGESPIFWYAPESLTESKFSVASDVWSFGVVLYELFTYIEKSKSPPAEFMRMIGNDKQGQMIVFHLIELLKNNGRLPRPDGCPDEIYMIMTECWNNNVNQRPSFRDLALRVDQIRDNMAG
Source text: All four kinases of the JAK/TYK-kinase family were used as purified recombinant GST-fusion proteins, containing the active kinase domains. GST-JAK1(866-1154), GST-JAK3(811-1124), and GST-TYK2(888-1187) were expressed and purified by affinity chromatography at the EPK biology unit. GST-JAK2(808-1132) was purchased from Invitrogen (Carlsbad, USA, #4288).
The kinase assays were based on the Caliper mobility shift assay using the LabChip 3000 systems. This technology is similar to capillary electrophoresis and uses charge driven separation of substrate and product in a microfluidic chip.
All kinase reactions were performed in 384 well microtiter plates in a total reaction volume of 18 μl. The assay plates were prepared with 0.1 μl per well of test compound in the appropriate test concentration, as described under the section “preparation of compound dilutions”. The reactions were started by combining 9 μl of substrate mix (consisting of peptide and ATP) with 9 μl of kinase dilution. The reactions were incubated for 60 minutes at 30° C. and stopped by adding 70 μl of stop buffer (100 mM Hepes, 5% DMSO, 0.1% Coating reagent, 10 mM EDTA, 0.015% Brij 35).
Fluorescently labeled synthetic peptides were used as substrates in all reactions. A peptide derived from the sequence of IRS-1 (IRS-1 peptide, FITC-Ahx-KKSRGDYMTMQIG-NH2) was used for JAK1 and TYK2 and a peptide named JAK3tide (FITC-GGEEEEYFELVKKKK-NH2) for JAK2 and JAK3. Specific assay conditions are described in Table 1:
The terminated reactions were transferred to the Caliper LabChip 3000 reader and the turnover of each reaction was measured by determining the substrate/product ratio.
Test compounds were dissolved in DMSO (10 mM) and transferred into 1.4 mL flat bottom or V-shaped Matrix tubes carrying a unique 2D matrix chip by individual compound hubs. The numbers of these chips were distinctively linked to the individual compound identification numbers. The stock solutions were stored at −20° C. if not used immediately. For the test procedure the vials were defrosted and identified by a scanner whereby a working sheet was generated that guided the subsequent working steps.
Compound dilutions were made in 96 well plates. This format enabled the assay of maximally 40 individual test compounds at 8 concentrations (single points) including 4 reference compounds. The dilution protocol included the production of pre-dilution plates, master plates and assay plates:
Pre-dilution plates: 96 polypropylene well plates were used as pre-dilution plates. A total of 4 pre-dilution plates were prepared including 10 test compounds each on the plate positions A1-A10, one standard compound at A11 and one DMSO control at A12. All dilution steps were done on a HamiltonSTAR robot. Master plates: 100 μL of individual compound dilutions including standard compound and controls of the 4 “pre-dilution plates” were transferred into a 384 “master plate” including the following concentrations 1′820, 564, 182, 54.6, 18.2, 5.46, 1.82 and 0.546 μM, respectively in 90% of DMSO. Assay plates: Identical assay plates were then prepared by pipetting […] each of compound dilutions of the master plates into 384-well “assay plates”. In the following the compounds were mixed with 9 μL of assays components plus 9 μL enzyme corresponding to a 1:181 dilution steps enabling the final concentration of 10, 3.0, 1.0, 0.3, 0.1, 0.03, 0.01 and 0.003 μM, respectively. The preparation of the master plates were handled by the Matrix PlateMate Plus robot and replication of assay plates by the HummingBird robot.

[2] = target: T1, human ALK5 (ALK5 T204D kinase domain); assay: ALK5 kinase activity, [33P] phosphate incorporation into casein; format: biochemical; details: casein substrate
Method: The kinase activity of ALK5 is assessed by measuring radiolabelled phosphate [33P] incorporation in to the generic substrate, casein. The kinase domain of human ALK5 (amino acids 200-503) is fused to an N-terminal histidine tag. The kinase activity of ALK5 is rendered constitutive via point mutation at amino acid 204 (threonine to aspartate modification, ALK5 T204D) and the kinase construct is engineered to be expressed from a baculovirus expression construct in insect cells. The purified, recombinantly-expressed histidine-tagged ALK5 T204D protein is dissolved at 5.4 mg/ml in 50 mM Tris-HCl pH 8.0, 150 mM NaCl, 5 mM DTT. ALK5 T204D is dissolved to 2.5 μg/ml in assay buffer (Assay buffer: 20 mM Tris-HCl pH 7.4, 10 mM MgCl2, 2 mM MnCl2) on the day of use.
Test compounds and reference compounds are dissolved in assay buffer without DTT containing 5% (v/v) DMSO. Stock solutions of test and reference compounds are diluted in assay buffer with DTT (1.25 mM) containing 4.5% (v/v) DMSO. 10 μl of test or reference compound are added to the appropriate wells of 96 well U-bottomed plate. Total enzyme activity is determined by measuring ALK5 T204D activity in the absence of ALK5 kinase inhibitor reference compounds. Non-specific binding (NSB) is determined by measuring the activity of ALK5 T204D in the presence of ALK5 kinase inhibitor reference compounds. 10 μl of dephosphorylated casein stock solution (dephosphorylated casein is dissolved in ddH2O at 20 mg/ml) is added per well (200 μg/well final assay concentration). 20 μl of ALK5 T204D (2.5 μg/ml solution) is added per well (50 ng/well final assay concentration). The plates are left to incubate at room temperature for 10 minutes.
10 μl of ATP mix is added to the well to initiate the reaction (0.66 nM [^33P]ATP/1 μM unlabelled ATP/well final assay concentration). The ATP mix is prepared as follows, unlabelled ATP (3 mM) is dissolved in ddH2O and pH adjusted to 7.4. The stock concentration of [^33P]ATP is 10 μCi/μl. The appropriate volume of [^33P]ATP is added to unlabelled ATP solution such that the final assay concentration per well is 0.1 μCi. Following addition of the ATP mix, the plates are incubated at room temperature for 50 minutes. The kinase reaction is terminated by the addition of 50 μL Stop Buffer (20 mM Tris-HCl pH 7.4, 10 mM EDTA).
75 μl/well from the reaction plate is transferred to a Multiscreen-IP plate (MultiScreen-IP plates are prepared by added 50 μL of 70% (v/v) ethanol per well and incubated for 5 minutes at room temperature. The ethanol is removed by aspiration via a MultiScreen HTS Vacuum Manifold unit (Millipore, Cat no: MSVMHT500). The plates are washed twice by adding 200 μl/well ddH2O). The MultiScreen-IP plate is incubated at room temperature for 30 minutes to allowing binding of casein to the plate. The MultiScreen-IP plates are washed three times by adding 200 μl/well 100 mM phosphoric acid solution and the gasket is carefully removed from the back of the MultiScreen-IP plate and the plate dried in the oven for 30 minutes. The MultiScreen-IP plate is backsealed, 50 μL of Microscint™20 is added, then the plates are topsealed and radiolabelled casein detected and quantified on a TopCount™ plate-reader using the ^33P scintillation protocol.

[3] = test system: bleomycin-induced pulmonary fibrosis; details: bleomycin-treated rats; cited from earlier work

| Molecule | IC50 [1] [µM] | IC50 [2] [µM] | other results |
| --- | --- | --- | --- |
| O=C(c1ccc(-c2cnc3ccc(NCc4cc(F)ccc4F)nn23)cc1)N1CCOCC1 [Example 2.4, {4-[6-(2,5-Difluoro-benzylamino)-imidazo[1,2-b]pyridazin-3-yl]-phenyl}-morpholin-4-yl-methanone] | 0.02 |  |  |
| OC1CCC(Nc2ccc3ncc(-c4ccnc(C5CC5)c4)n3n2)CC1 (stereo not drawn) [Example 1.6, 4-[3-(2-Cyclopropyl-pyridin-4yl)-imidazo[1,2-b]pyridazin-6-ylamino]-cyclohexanol] |  | 0.015 |  |
| O[C@H]1CC[C@H](Nc2ccc3ncc(-c4ccnc(-c5ccncc5)c4)n3n2)CC1 [Example 1.1, 4-(3-[2,4′]Bipyridinyl-4-yl-imidazo[1,2-b]pyridazin-6-ylamino)-cyclohexanol] |  | 0.042 |  |
| O=C(NC1CCOCC1)c1ccc(-c2cnc3ccc(NCc4cc(F)ccc4F)nn23)cc1 [Example 2.7, 4-[6-(2,5-Difluorobenzylamino)-imidazo[1,2-b]pyridazin-3-yl]-N-(tetrahydro-pyran-4-yl)-benzamide] | 0.013 |  |  |
| Cn1cc(-c2cc(-c3cnc4ccc(NC5CCC(O)CC5)nn34)ccn2)cn1 (stereo not drawn) [Example 1.4, 4-{3-[2-(1-Methyl-1H-pyrazol-4-yl)-pyridin-4-yl]-imidazo[1,2-b]pyridazin-6-ylamino}-cyclohexanol] |  | 0.15 |  |
| OC1CCC(Nc2ccc3ncc(-c4ccnc(-c5ccoc5)c4)n3n2)CC1 (stereo not drawn) [Example 1.3, 4-[3-(2-Furan-3-yl-pyridin-4-yl)-imidazo[1,2-b]pyridazin-6-ylamino]-cyclohexanol] |  | 0.005 |  |
| Cc1ccc(-c2cc(-c3cnc4ccc(NC5CCC(O)CC5)nn34)ccn2)s1 (stereo not drawn) [Example 1.2, 4-{3-[2-(5-Methyl-thiophen-2-yl)-pyridin-4-yl]-imidazo[1,2-b]pyridazin-6-ylamino}-cyclohexanol] |  | 0.036 |  |
| O=C(NCCN1CCOCC1)c1ccc(-c2cnc3ccc(NCc4cc(F)ccc4F)nn23)cc1 [Example 2.2, 4-[6(2,5-Difluorobenzylamino)-imidazo[1,2-b]pyridazin-3-yl]-N-(2-morpholin-4-yl-ethyl)benzamide] | 0.008 |  |  |
| CN1CCN(C(=O)c2ccc(-c3cnc4ccc(NCc5cc(F)ccc5F)nn34)cc2)CC1 [Example 2.1, {4-[6-(2,5-Difluoro-benzylamino)-imidazo[1,2-b]pyridazin-3-yl]-phenyl}-(4-methyl-piperazin-1-yl)-methanone] | 0.016 |  |  |
| OC1CCC(Nc2ccc3ncc(-c4cccc(-n5cccn5)c4)n3n2)CC1 (stereo not drawn) [Example 1.7, 4-[3-(3-Pyrazol-1-yl-phenyl)-imidazo[1,2-b]pyridazin-6-ylamino]-cyclohexanol] |  | 0.005 |  |
| CCN1CCCC1CNC(=O)c1ccc(-c2cnc3ccc(NCc4cc(F)ccc4F)nn23)cc1 (stereo not drawn) [Example 2.6, 4-[6-(2,5-Difluoro-benzylamino)-imidazo[1,2-b]pyridazin-3-yl]-N-(1-ethyl-pyrrolidin-2-ylmethyl)-benzamide] | 0.011 |  |  |
| O=C(NC1CCOCC1)c1cccc(-c2cnc3ccc(NCc4cc(F)ccc4F)nn23)c1 [Example 2.5] | 0.021 |  |  |
| CN(C)C1CCN(C(=O)c2ccc(-c3cnc4ccc(NCc5cc(F)ccc5F)nn34)cc2)CC1 [Example 2.3, {4-[6-(2,5-Difluorobenzylamino)-imidazo[1,2-b]pyridazin-3-yl]-phenyl}-(4-dimethylamino-piperidin-1-yl)-methanone] | 0.014 |  |  |
| B1 |  |  | destruction of lung architecture [3]: ameliorated; lung fibrosis [3]: attenuated; number of infiltrating cells [3]: markedly reduced; number of macrophages and neutrophils in bronchoalveolar lavage [3]: significantly reduced; protein content of bronchoalveolar lavage [3]: reduced the protein content |
